From ChEMBL document CHEMBL5338802, “To Fold or Not to Fold: Diastereomeric Optimization of an α-Helical Antimicrobial Peptide” (J Med Chem, 2023)

System: Erythrocyte
Experiment: Hemolytic activity in human RBC incubated for 4 hrs by visual analysis
Format: toxicity, cell-based
Settings: not given

Row | Structure (SMILES) | MHC [µg/mL]
1 | CC(C)C[C@H](NC(=O)[C@H](CC(C)C)NC(=O)[C@@H](CC(C)C)NC(=O)[C@@H](CCCCN)NC(=O)[C@H](CC(C)C)NC(=O)[C@H](CC(C)C)NC(=O)[C@H](CCCCN)NC(=O)[C@@H](CC(C)C)NC(=O)[C@@H](CC(C)C)NC(=O)[C@H](CCCCN)NC(=O)[C@@H](N)CCCCN)C(N)=O | 1000
2 | CC(C)C[C@H](NC(=O)[C@H](CC(C)C)NC(=O)[C@@H](CCCCN)NC(=O)[C@H](CC(C)C)NC(=O)[C@H](CC(C)C)NC(=O)[C@@H](CCCCN)NC(=O)[C@H](N)CCCCN)C(=O)N[C@@H](CCCCN)C(=O)N[C@@H](CC(C)C)C(=O)N[C@H](CC(C)C)C(=O)N[C@H](CC(C)C)C(N)=O | > 2000
3 | CC(C)C[C@H](NC(=O)[C@H](CC(C)C)NC(=O)[C@H](CC(C)C)NC(=O)[C@H](CCCCN)NC(=O)[C@@H](CC(C)C)NC(=O)[C@@H](CC(C)C)NC(=O)[C@H](CCCCN)NC(=O)[C@@H](CC(C)C)NC(=O)[C@@H](CC(C)C)NC(=O)[C@H](CCCCN)NC(=O)[C@@H](N)CCCCN)C(N)=O | 1000
4 | CC(C)C[C@H](NC(=O)[C@@H](CC(C)C)NC(=O)[C@H](CCCCN)NC(=O)[C@@H](CC(C)C)NC(=O)[C@H](CC(C)C)NC(=O)[C@@H](CCCCN)NC(=O)[C@H](CC(C)C)NC(=O)[C@@H](CC(C)C)NC(=O)[C@H](CCCCN)NC(=O)[C@H](N)CCCCN)C(=O)N[C@H](CC(C)C)C(N)=O | > 2000
5 | CC(C)C[C@H](NC(=O)[C@H](CC(C)C)NC(=O)[C@@H](CC(C)C)NC(=O)[C@H](CCCCN)NC(=O)[C@H](CC(C)C)NC(=O)[C@@H](CC(C)C)NC(=O)[C@H](CCCCN)NC(=O)[C@H](CC(C)C)NC(=O)[C@@H](CC(C)C)NC(=O)[C@@H](CCCCN)NC(=O)[C@@H](N)CCCCN)C(N)=O | > 2000
6 | CC(C)C[C@H](NC(=O)[C@H](CC(C)C)NC(=O)[C@H](CC(C)C)NC(=O)[C@H](CCCCN)NC(=O)[C@@H](CC(C)C)NC(=O)[C@@H](CC(C)C)NC(=O)[C@H](CCCCN)NC(=O)[C@@H](CC(C)C)NC(=O)[C@@H](CC(C)C)NC(=O)[C@@H](CCCCN)NC(=O)[C@@H](N)CCCCN)C(N)=O | 250
7 | CC(C)C[C@H](NC(=O)[C@H](CC(C)C)NC(=O)[C@H](CC(C)C)NC(=O)[C@H](CCCCN)NC(=O)[C@@H](CC(C)C)NC(=O)[C@@H](CC(C)C)NC(=O)[C@H](CCCCN)NC(=O)[C@H](CC(C)C)NC(=O)[C@H](CC(C)C)NC(=O)[C@H](CCCCN)NC(=O)[C@@H](N)CCCCN)C(N)=O | 500
8 | CC(C)C[C@H](NC(=O)[C@@H](CC(C)C)NC(=O)[C@H](CC(C)C)NC(=O)[C@H](CCCCN)NC(=O)[C@@H](CC(C)C)NC(=O)[C@H](CC(C)C)NC(=O)[C@H](CCCCN)NC(=O)[C@@H](CC(C)C)NC(=O)[C@@H](CC(C)C)NC(=O)[C@H](CCCCN)NC(=O)[C@@H](N)CCCCN)C(N)=O | > 2000
9 | CC(C)C[C@H](NC(=O)[C@H](CC(C)C)NC(=O)[C@@H](CC(C)C)NC(=O)[C@@H](CCCCN)NC(=O)[C@H](CC(C)C)NC(=O)[C@H](CC(C)C)NC(=O)[C@@H](CCCCN)NC(=O)[C@@H](CC(C)C)NC(=O)[C@H](CC(C)C)NC(=O)[C@H](CCCCN)NC(=O)[C@@H](N)CCCCN)C(N)=O | 125
10 | CC(C)C[C@H](NC(=O)[C@H](CC(C)C)NC(=O)[C@H](CC(C)C)NC(=O)[C@H](CCCCN)NC(=O)[C@H](CC(C)C)NC(=O)[C@@H](CC(C)C)NC(=O)[C@H](CCCCN)NC(=O)[C@@H](CC(C)C)NC(=O)[C@@H](CC(C)C)NC(=O)[C@@H](CCCCN)NC(=O)[C@@H](N)CCCCN)C(N)=O | 250
11 | CC(C)C[C@H](NC(=O)[C@@H](CC(C)C)NC(=O)[C@@H](CC(C)C)NC(=O)[C@H](CCCCN)NC(=O)[C@H](CC(C)C)NC(=O)[C@H](CC(C)C)NC(=O)[C@H](CCCCN)NC(=O)[C@H](CC(C)C)NC(=O)[C@@H](CC(C)C)NC(=O)[C@@H](CCCCN)NC(=O)[C@@H](N)CCCCN)C(N)=O | 1000
12 | CC(C)C[C@H](NC(=O)[C@H](CC(C)C)NC(=O)[C@H](CC(C)C)NC(=O)[C@@H](CCCCN)NC(=O)[C@@H](CC(C)C)NC(=O)[C@@H](CC(C)C)NC(=O)[C@@H](CCCCN)NC(=O)[C@@H](CC(C)C)NC(=O)[C@H](CC(C)C)NC(=O)[C@H](CCCCN)NC(=O)[C@@H](N)CCCCN)C(N)=O | 250
13 | CC(C)C[C@H](NC(=O)[C@H](CC(C)C)NC(=O)[C@@H](CCCCN)NC(=O)[C@H](CC(C)C)NC(=O)[C@H](CC(C)C)NC(=O)[C@@H](CCCCN)NC(=O)[C@@H](CC(C)C)NC(=O)[C@H](CC(C)C)NC(=O)[C@H](CCCCN)NC(=O)[C@@H](N)CCCCN)C(=O)N[C@H](CC(C)C)C(N)=O | > 2000
14 | CC(C)C[C@H](NC(=O)[C@H](CC(C)C)NC(=O)[C@@H](CC(C)C)NC(=O)[C@H](CCCCN)NC(=O)[C@@H](CC(C)C)NC(=O)[C@H](CC(C)C)NC(=O)[C@@H](CCCCN)NC(=O)[C@H](CC(C)C)NC(=O)[C@@H](CC(C)C)NC(=O)[C@H](CCCCN)NC(=O)[C@@H](N)CCCCN)C(N)=O | > 2000
15 | CC(C)C[C@H](NC(=O)[C@H](CCCCN)NC(=O)[C@H](CC(C)C)NC(=O)[C@H](CC(C)C)NC(=O)[C@@H](CCCCN)NC(=O)[C@H](N)CCCCN)C(=O)N[C@@H](CC(C)C)C(=O)N[C@@H](CCCCN)C(=O)N[C@@H](CC(C)C)C(=O)N[C@H](CC(C)C)C(=O)N[C@H](CC(C)C)C(N)=O | 1000
16 | CC(C)C[C@H](NC(=O)[C@H](CCCCN)NC(=O)[C@H](N)CCCCN)C(=O)N[C@@H](CC(C)C)C(=O)N[C@H](CCCCN)C(=O)N[C@H](CC(C)C)C(=O)N[C@H](CC(C)C)C(=O)N[C@@H](CCCCN)C(=O)N[C@@H](CC(C)C)C(=O)N[C@@H](CC(C)C)C(=O)N[C@H](CC(C)C)C(N)=O | 1000
17 | CC(C)C[C@@H](NC(=O)[C@@H](CC(C)C)NC(=O)[C@@H](CC(C)C)NC(=O)[C@@H](CCCCN)NC(=O)[C@@H](CC(C)C)NC(=O)[C@@H](CC(C)C)NC(=O)[C@@H](CCCCN)NC(=O)[C@@H](CC(C)C)NC(=O)[C@@H](CC(C)C)NC(=O)[C@@H](CCCCN)NC(=O)[C@H](N)CCCCN)C(N)=O | 125
18 | CC(C)C[C@H](NC(=O)[C@@H](CC(C)C)NC(=O)[C@H](CC(C)C)NC(=O)[C@@H](CCCCN)NC(=O)[C@H](CC(C)C)NC(=O)[C@@H](CC(C)C)NC(=O)[C@H](CCCCN)NC(=O)[C@@H](CC(C)C)NC(=O)[C@H](CC(C)C)NC(=O)[C@@H](CCCCN)NC(=O)[C@@H](N)CCCCN)C(N)=O | > 2000
19 | CC(C)CC(NC(=O)C(CC(C)C)NC(=O)C(CC(C)C)NC(=O)C(CCCCN)NC(=O)C(CC(C)C)NC(=O)C(CC(C)C)NC(=O)C(CCCCN)NC(=O)C(CC(C)C)NC(=O)C(CC(C)C)NC(=O)C(CCCCN)NC(=O)C(N)CCCCN)C(N)=O (racemic) | 1000
20 | CC(C)C[C@H](NC(=O)[C@H](CC(C)C)NC(=O)[C@@H](CC(C)C)NC(=O)[C@H](CCCCN)NC(=O)[C@@H](CC(C)C)NC(=O)[C@@H](CC(C)C)NC(=O)[C@H](CCCCN)NC(=O)[C@@H](CC(C)C)NC(=O)[C@@H](CC(C)C)NC(=O)[C@H](CCCCN)NC(=O)[C@@H](N)CCCCN)C(N)=O | > 2000
21 | CC(C)C[C@H](NC(=O)[C@H](CC(C)C)NC(=O)[C@H](CC(C)C)NC(=O)[C@@H](CCCCN)NC(=O)[C@@H](CC(C)C)NC(=O)[C@@H](CC(C)C)NC(=O)[C@@H](CCCCN)NC(=O)[C@H](CC(C)C)NC(=O)[C@H](CC(C)C)NC(=O)[C@H](CCCCN)NC(=O)[C@@H](N)CCCCN)C(N)=O | 1000
22 | CC(C)C[C@H](NC(=O)[C@H](CC(C)C)NC(=O)[C@@H](CCCCN)NC(=O)[C@H](CC(C)C)NC(=O)[C@H](CC(C)C)NC(=O)[C@@H](CCCCN)NC(=O)[C@H](CC(C)C)NC(=O)[C@H](CC(C)C)NC(=O)[C@@H](CCCCN)NC(=O)[C@H](N)CCCCN)C(=O)N[C@H](CC(C)C)C(N)=O | > 2000
23 | CC(C)C[C@H](NC(=O)[C@H](CC(C)C)NC(=O)[C@H](CC(C)C)NC(=O)[C@H](CCCCN)NC(=O)[C@H](CC(C)C)NC(=O)[C@H](CC(C)C)NC(=O)[C@@H](CCCCN)NC(=O)[C@H](CC(C)C)NC(=O)[C@H](CC(C)C)NC(=O)[C@@H](CCCCN)NC(=O)[C@@H](N)CCCCN)C(N)=O | < 15.6
24 | CC(C)C[C@H](NC(=O)[C@H](CCCCN)NC(=O)[C@H](CC(C)C)NC(=O)[C@H](CC(C)C)NC(=O)[C@@H](CCCCN)NC(=O)[C@H](CC(C)C)NC(=O)[C@H](CC(C)C)NC(=O)[C@@H](CCCCN)NC(=O)[C@H](N)CCCCN)C(=O)N[C@@H](CC(C)C)C(=O)N[C@H](CC(C)C)C(N)=O | 1000
25 | CC(C)C[C@H](NC(=O)[C@H](CC(C)C)NC(=O)[C@H](CC(C)C)NC(=O)[C@@H](CCCCN)NC(=O)[C@H](CC(C)C)NC(=O)[C@H](CC(C)C)NC(=O)[C@@H](CCCCN)NC(=O)[C@H](CC(C)C)NC(=O)[C@H](CC(C)C)NC(=O)[C@@H](CCCCN)NC(=O)[C@H](N)CCCCN)C(N)=O | 1000
26 | CC(C)CC(NC(=O)C(CC(C)C)NC(=O)C(CC(C)C)NC(=O)C(CCCCN)NC(=O)C(CC(C)C)NC(=O)[C@H](CC(C)C)NC(=O)C(CCCCN)NC(=O)C(CC(C)C)NC(=O)C(CC(C)C)NC(=O)C(CCCCN)NC(=O)C(N)CCCCN)C(N)=O (some centres not stated) | 2000
27 | CC(C)C[C@H](NC(=O)[C@H](CC(C)C)NC(=O)[C@H](CC(C)C)NC(=O)[C@H](CCCCN)NC(=O)[C@H](CC(C)C)NC(=O)[C@H](CC(C)C)NC(=O)[C@@H](CCCCN)NC(=O)[C@H](CC(C)C)NC(=O)[C@H](CC(C)C)NC(=O)[C@@H](CCCCN)NC(=O)[C@H](N)CCCCN)C(N)=O | < 15.6
28 | CC(C)C[C@H](NC(=O)[C@H](CC(C)C)NC(=O)[C@H](CC(C)C)NC(=O)[C@H](CCCCN)NC(=O)[C@@H](CC(C)C)NC(=O)[C@@H](CC(C)C)NC(=O)[C@@H](CCCCN)NC(=O)[C@H](CC(C)C)NC(=O)[C@H](CC(C)C)NC(=O)[C@H](CCCCN)NC(=O)[C@@H](N)CCCCN)C(N)=O | 31.3

System: not listed separately
Experiment: Induction of membrane disruption in eukaryotic inner membrane mimic EYPC vesicles assessed as carboxyfluorescein leakage at 10 ug/ml measured after 240 secs by fluorescence based assay
Format: cell membranes
Settings: dose 10.0 µg/ml, time 240.0 sec

Row | Structure (SMILES) | Activity [%]
29 | CC(C)C[C@H](NC(=O)[C@H](CC(C)C)NC(=O)[C@@H](CC(C)C)NC(=O)[C@@H](CCCCN)NC(=O)[C@H](CC(C)C)NC(=O)[C@H](CC(C)C)NC(=O)[C@@H](CCCCN)NC(=O)[C@@H](CC(C)C)NC(=O)[C@H](CC(C)C)NC(=O)[C@H](CCCCN)NC(=O)[C@@H](N)CCCCN)C(N)=O | 2
30 | CC(C)C[C@H](NC(=O)[C@H](CC(C)C)NC(=O)[C@@H](CC(C)C)NC(=O)[C@H](CCCCN)NC(=O)[C@@H](CC(C)C)NC(=O)[C@H](CC(C)C)NC(=O)[C@@H](CCCCN)NC(=O)[C@H](CC(C)C)NC(=O)[C@@H](CC(C)C)NC(=O)[C@H](CCCCN)NC(=O)[C@@H](N)CCCCN)C(N)=O | 3
31 | CC(C)C[C@H](NC(=O)[C@H](CCCCN)NC(=O)[C@H](N)CCCCN)C(=O)N[C@@H](CC(C)C)C(=O)N[C@H](CCCCN)C(=O)N[C@H](CC(C)C)C(=O)N[C@H](CC(C)C)C(=O)N[C@@H](CCCCN)C(=O)N[C@@H](CC(C)C)C(=O)N[C@@H](CC(C)C)C(=O)N[C@H](CC(C)C)C(N)=O | 3
32 | CC(C)C[C@H](NC(=O)[C@H](CC(C)C)NC(=O)[C@@H](CC(C)C)NC(=O)[C@H](CCCCN)NC(=O)[C@@H](CC(C)C)NC(=O)[C@@H](CC(C)C)NC(=O)[C@H](CCCCN)NC(=O)[C@@H](CC(C)C)NC(=O)[C@@H](CC(C)C)NC(=O)[C@H](CCCCN)NC(=O)[C@@H](N)CCCCN)C(N)=O | 4
